What was measured:
S. epidermidis [1] = test: Antimicrobial effect: germ count over time in 0.3% by weight aqueous solution of test substance; assay type: cell-based, Staphylococcus epidermidis; details: 0.3% by weight in water, 37° C.; for germ count CFU/ml, 0 hours: directly after addition (0 h)
Procedure: (§1) 20 ml of a 0.3% by weight solution of the test substance listed below in the table in water was inoculated with 200 μl of a fresh 48 hour culture of C. xerosis or S. epidermidis and incubated for three days at 37° C. Directly after the addition, as well as after 1, 3, 24 and 48 hours, samples, each of 1 ml, were taken and the germ count was determined.

S. epidermidis [2] = test: pH dependency of the antimicrobial effect: germ count in buffered solutions; assay type: cell-based, Staphylococcus epidermidis
Procedure: as §1
(§2) The antimicrobial effect of octyllactamide in buffered solutions was tested correspondingly to example 8 at various pH values.

C. xerosis [3] = test: Antimicrobial effect: germ count over time in 0.3% by weight aqueous solution of test substance; assay type: cell-based, Corynebacterium xerosis; details: 0.3% by weight in water, 37° C.; for germ count CFU/ml, 0 hours: directly after addition (0 h)
Procedure: as §1

C. xerosis [4] = test: pH dependency of the antimicrobial effect: germ count in buffered solutions; assay type: cell-based, Corynebacterium xerosis
Procedure: as §1, §2

CCCCCCCCNC(=O)C(C)O (stereo not shown) [Octyllactamide, N-octyllactamide]
germ count CFU/ml, 1 hour (S. epidermidis [1]): 3.7E+6 CFU/ml
germ count CFU/ml, 3 hours (S. epidermidis [1]): 3.0E+6 CFU/ml
germ count CFU/ml, 24 hours (S. epidermidis [1]): 2.3E+6 CFU/ml
germ count CFU/ml, 48 hours (S. epidermidis [1]): 8.5E+5 CFU/ml
germ count CFU/ml, 0 hours (S. epidermidis [1]): 1.9E+7 CFU/ml
germ count CFU/ml, 0 hours (S. epidermidis [2]; buffered solution pH 4.5, 0 h): 3.7E+6 CFU/ml
germ count CFU/ml, 1 hour (S. epidermidis [2]; buffered solution pH 4.5, 1 h): 2.1E+6 CFU/ml
germ count CFU/ml, 3 hours (S. epidermidis [2]; buffered solution pH 4.5, 3 h): 7.9E+4 CFU/ml
germ count CFU/ml, 24 hours (S. epidermidis [2]; buffered solution pH 4.5, 24 h): <2.0E+2 CFU/ml
germ count CFU/ml, 48 hours (S. epidermidis [2]; buffered solution pH 4.5, 48 h): <2.0E+2 CFU/ml
germ count CFU/ml, 0 hours (S. epidermidis [2]; buffered solution pH 5.5, 0 h): 3.7E+6 CFU/ml
germ count CFU/ml, 1 hour (S. epidermidis [2]; buffered solution pH 5.5, 1 h): 1.7E+6 CFU/ml
germ count CFU/ml, 3 hours (S. epidermidis [2]; buffered solution pH 5.5, 3 h): 4.7E+3 CFU/ml
germ count CFU/ml, 24 hours (S. epidermidis [2]; buffered solution pH 5.5, 24 h): <2.0E+2 CFU/ml
germ count CFU/ml, 48 hours (S. epidermidis [2]; buffered solution pH 5.5, 48 h): <2.0E+2 CFU/ml
germ count CFU/ml, 0 hours (S. epidermidis [2]; buffered solution pH 6.9, 0 h): 3.1E+6 CFU/ml
germ count CFU/ml, 1 hour (S. epidermidis [2]; buffered solution pH 6.9, 1 h): 1.5E+6 CFU/ml
germ count CFU/ml, 3 hours (S. epidermidis [2]; buffered solution pH 6.9, 3 h): 5.7E+4 CFU/ml
germ count CFU/ml, 24 hours (S. epidermidis [2]; buffered solution pH 6.9, 24 h): <2.0E+2 CFU/ml
germ count CFU/ml, 48 hours (S. epidermidis [2]; buffered solution pH 6.9, 48 h): <2.0E+2 CFU/ml
germ count CFU/ml, 1 hour (C. xerosis [3]): 1.5E+4 CFU/ml
germ count CFU/ml, 3 hours (C. xerosis [3]): <2.0E+2 CFU/ml
germ count CFU/ml, 24 hours (C. xerosis [3]): <2.0E+2 CFU/ml
germ count CFU/ml, 48 hours (C. xerosis [3]): <2.0E+2 CFU/ml
germ count CFU/ml, 0 hours (C. xerosis [3]): 9.1E+5 CFU/ml
germ count CFU/ml, 0 hours (C. xerosis [4]; buffered solution pH 4.5, 0 h): 1.0E+6 CFU/ml
germ count CFU/ml, 1 hour (C. xerosis [4]; buffered solution pH 4.5, 1 h): 5.5E+4 CFU/ml
germ count CFU/ml, 3 hours (C. xerosis [4]; buffered solution pH 4.5, 3 h): <2.0E+2 CFU/ml
germ count CFU/ml, 24 hours (C. xerosis [4]; buffered solution pH 4.5, 24 h): <2.0E+2 CFU/ml
germ count CFU/ml, 48 hours (C. xerosis [4]; buffered solution pH 4.5, 48 h): <2.0E+2 CFU/ml
germ count CFU/ml, 0 hours (C. xerosis [4]; buffered solution pH 5.5, 0 h): 1.0E+6 CFU/ml
germ count CFU/ml, 1 hour (C. xerosis [4]; buffered solution pH 5.5, 1 h): 1.8E+5 CFU/ml
germ count CFU/ml, 3 hours (C. xerosis [4]; buffered solution pH 5.5, 3 h): 3.5E+4 CFU/ml
germ count CFU/ml, 24 hours (C. xerosis [4]; buffered solution pH 5.5, 24 h): <2.0E+2 CFU/ml
germ count CFU/ml, 48 hours (C. xerosis [4]; buffered solution pH 5.5, 48 h): <2.0E+2 CFU/ml
germ count CFU/ml, 0 hours (C. xerosis [4]; buffered solution pH 6.9, 0 h): 7.3E+5 CFU/ml
germ count CFU/ml, 1 hour (C. xerosis [4]; buffered solution pH 6.9, 1 h): 3.3E+3 CFU/ml
germ count CFU/ml, 3 hours (C. xerosis [4]; buffered solution pH 6.9, 3 h): <2.0E+2 CFU/ml
germ count CFU/ml, 24 hours (C. xerosis [4]; buffered solution pH 6.9, 24 h): <2.0E+2 CFU/ml
germ count CFU/ml, 48 hours (C. xerosis [4]; buffered solution pH 6.9, 48 h): <2.0E+2 CFU/ml

PEG-10-octyllactamide [Octyl-PEG-10-lactamide]
germ count CFU/ml, 1 hour (S. epidermidis [1]): 2.3E+6 CFU/ml
germ count CFU/ml, 3 hours (S. epidermidis [1]): 9.3E+6 CFU/ml
germ count CFU/ml, 24 hours (S. epidermidis [1]): 8.1E+4 CFU/ml
germ count CFU/ml, 48 hours (S. epidermidis [1]): <2.0E+2 CFU/ml
germ count CFU/ml, 0 hours (S. epidermidis [1]): 1.9E+7 CFU/ml
germ count CFU/ml, 1 hour (C. xerosis [3]): 4.5E+5 CFU/ml
germ count CFU/ml, 3 hours (C. xerosis [3]): 1.8E+5 CFU/ml
germ count CFU/ml, 24 hours (C. xerosis [3]): 1.6E+3 CFU/ml
germ count CFU/ml, 48 hours (C. xerosis [3]): <2.0E+2 CFU/ml
germ count CFU/ml, 0 hours (C. xerosis [3]): 9.1E+5 CFU/ml

CCCCCCNC(=O)C(C)O (stereo not shown) [Hexyllactamide, N-Hexyllactamide]
germ count CFU/ml, 1 hour (S. epidermidis [1]): 1.7E+6 CFU/ml
germ count CFU/ml, 3 hours (S. epidermidis [1]): 7.1E+5 CFU/ml
germ count CFU/ml, 24 hours (S. epidermidis [1]): <2.0E+2 CFU/ml
germ count CFU/ml, 48 hours (S. epidermidis [1]): <2.0E+2 CFU/ml
germ count CFU/ml, 0 hours (S. epidermidis [1]): 8.6E+6 CFU/ml
germ count CFU/ml, 1 hour (C. xerosis [3]): 5.5E+5 CFU/ml
germ count CFU/ml, 3 hours (C. xerosis [3]): 2.6E+3 CFU/ml
germ count CFU/ml, 24 hours (C. xerosis [3]): <2.0E+2 CFU/ml
germ count CFU/ml, 48 hours (C. xerosis [3]): <2.0E+2 CFU/ml
germ count CFU/ml, 0 hours (C. xerosis [3]): 2.5E+6 CFU/ml

PEG-3-octyllactamide [Octyl-PEG-3-lactamide]
germ count CFU/ml, 1 hour (S. epidermidis [1]): 4.1E+6 CFU/ml
germ count CFU/ml, 3 hours (S. epidermidis [1]): 3.1E+6 CFU/ml
germ count CFU/ml, 24 hours (S. epidermidis [1]): <2.0E+2 CFU/ml
germ count CFU/ml, 48 hours (S. epidermidis [1]): <2.0E+2 CFU/ml
germ count CFU/ml, 0 hours (S. epidermidis [1]): 1.9E+7 CFU/ml
germ count CFU/ml, 1 hour (C. xerosis [3]): 6.3E+4 CFU/ml
germ count CFU/ml, 3 hours (C. xerosis [3]): 3.7E+3 CFU/ml
germ count CFU/ml, 24 hours (C. xerosis [3]): <2.0E+2 CFU/ml
germ count CFU/ml, 48 hours (C. xerosis [3]): <2.0E+2 CFU/ml
germ count CFU/ml, 0 hours (C. xerosis [3]): 9.1E+5 CFU/ml

Reference: patent publication US7847123B2, “Antimicrobial compositions” (Evonik Goldschmidt GmbH, priority 2006, dated 2010)
